Data from patent US6407099B1, “Arylpiperidinopropanol and arylpiperazinopropanol derivatives and pharmaceuticals containing the same” (Suntory Limited, priority 1997, dated 2002).
pIC50: −log10 of the molar value.

Assays:
[1] = test system: Sodium channel; test: Inhibitory effect of veratrizine-induced sodium channel activity (synaptozome membrane potential, Rhodamine 6G); assay type: biochemical, Wistar rats; settings: compound 0.1 μM; rat brain synaptozomes, veratrizine-induced depolarization
Source text: Inhibitory Effect of Veratrizine-induced Sodium Channel Activity

[2] = test system: lipid peroxidation; test: Lipid peroxidation suppressing effect (brain membrane preparation, malonaldehyde and 4-hydroxyalkenals); assay type: biochemical, Wistar rats; settings: rat brain membrane preparation, 37° C., 30 minutes
Description: Lipid Peroxidation Suppressing Effect
The whole brains of Wistar rats (10 weeks old, male) were excised and homogenized in the 10 times volumes of 50 mM phosphate-buffered solution (pH=7.4) (hereinafter referred to as PBS). The centrifuged supernatent was further diluted fourfold and the result was used as the brain membrane preparation. The membrane preparation was incubated in the presence of vehicle (0.5% DMSO) or compound at 37° C. for 30 minutes and an automatic oxidation reaction promoted. The reaction was stopped by 35% perchloric acid, then the total of the main decomposition products of the peroxidized lipids present in the centrifuged supernatent, that is, malonaldehyde and 4-hydroxyalkenals, was measured using a BIOXYTECH®/LPO-586™ peroxidized lipid colorimetric assay kit (OXIS International, Inc.) and used as an indicator of the lipid peroxidation.

[3] = target: T1, Dopamine D2 receptor (Rattus norvegicus, UniProt P61169); test: Dopamine D2 receptor blocking action ([^3H] raclopride, striatum membrane fraction); assay type: binding, Wistar male rats; settings: 1.0 nM [^3H] raclopride, 25° C., 1 hour
T1 construct: membrane fraction prepared from the striatum of Wistar male rats; from tissue; host or cells: rat striatum membrane fraction
Description: Dopamine D2 Receptor Blocking Action
57 μl of the membrane fraction prepared from the striatum of Wistar male rats (6 weeks old) was incubated together with the compound and 1.0 nM [^3H] raclopride in a buffer at 25° C. for 1 hour. A GF/C glass filter (0.1% polyethylene imine treatment) was used for B/F separation. A beta plate was used for measurement of the radioactivity to evaluate the effect of the compound.

[4] = test system: DBA/2N type mice; test: Audiogenic seizure suppressing effect; assay type: in vivo; settings: Mus musculus, ip, 20 min, compound 10 mg/kg, i.p.; audio stimulus after 20 minutes; seizure score; read-out: Antiseizure effect (suppression rate %)
Description: Audiogenic Seizure Suppressing Effect
The audiogenic seizure suppressing effect of the compounds was evaluated by the method of Sarro et al. [G. B. De Sarro et al., Br. J. Pharmacol., 93, 247 (1988)]. That is, the compound dissolved in 10% 2-hydroxypropyl-β-cyclodextrin was administered intraperitoneally to DBA/2N type mice (male, 3 weeks old). After 20 minutes, a supersonic washer was used to apply audio stimulus of at least 90 dB for 1 minute. The wild running (WR), clonic seizures (clonus), tonic seizures (tonus), and the respiratory arrest (RA) were observed. The seizure suppressing effect was evaluated from the rate of suppression of the average value of the seizure score found as 0=no response, 1=WR, 2=clonus, 3=tonus, and 4=RA.

[5] = test system: T-type Ca^2+ channel; test: T-type calcium channel inhibitory effect (whole-cell patch clamp, hippocampal CA1 pyramidal cells); assay type: cell-based, Wistar rats; settings: rat hippocampal CA1 pyramidal cells; peak current after 1 minute of application
Description: T-Type Calcium Channel Inhibitory Effect
The hippocampal CA1 pyramidal cells were isolated from Wistar rats (female, 1 week old) in according to the method reported by Takahashi et al. [K. Takahashi et al.; J. Pharmacol. Exp. Ther., 256, 169 (1991)] and the T-type calcium current was measured under conditions of a fixed membrane potential using the whole-cell configuration of the patch clamp technique. The effects of the compounds were evaluated from the rate of suppression of the peak current after 1 minute of application using the concentration clamp method.

[6] = Acute toxicity test; settings: male, mouse, in vivo, iv, ddY mice, death rate up to 24 hours after administration
Description: A pharmaceutical preparation was administered intravenously to ddY mice (male, 6 weeks old). The 50% lethal dosage LD50 of the acute toxicity was calculated by an ordinary method from the death rate up to 24 hours after administration.

T1 sequence (P61169 whole entry): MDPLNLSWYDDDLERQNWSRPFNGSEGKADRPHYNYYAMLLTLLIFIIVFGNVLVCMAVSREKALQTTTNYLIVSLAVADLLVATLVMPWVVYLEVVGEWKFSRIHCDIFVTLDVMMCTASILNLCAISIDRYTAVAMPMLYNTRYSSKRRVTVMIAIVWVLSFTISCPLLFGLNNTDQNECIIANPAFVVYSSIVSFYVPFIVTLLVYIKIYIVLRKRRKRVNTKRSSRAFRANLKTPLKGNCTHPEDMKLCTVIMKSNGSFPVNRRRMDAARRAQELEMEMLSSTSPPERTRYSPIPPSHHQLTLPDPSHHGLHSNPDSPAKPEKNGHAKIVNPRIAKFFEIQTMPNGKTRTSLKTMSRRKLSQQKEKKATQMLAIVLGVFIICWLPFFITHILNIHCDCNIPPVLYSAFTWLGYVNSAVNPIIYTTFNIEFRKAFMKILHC

SMILES: Cc1cc(OC[C@@H](O)CN2CCC(c3ccc(Cc4ccc(F)cc4)cc3)CC2)c(C)c(C)c1N [Compound 27, (2S)-1-[(4-amino-2,3,5-trimethyl)phenoxy]-3-[4-(4-(4-fluorophenyl)methylphenyl)piperidin-1-yl]-2-propanol]
- Anti-veratrizine effect (inhibiting rate %) [1]: 32.1%
- pIC50 [2]: 6.34
- pIC50 [3]: 5.20
- inhibition in vivo at 10 mg/kg [4]: 55%

SMILES: COc1ccc(N)cc1OC[C@@H](O)CN1CCC(c2ccc(Oc3ccccc3)cc2)CC1 [Compound 41, (2S)-1-[(5-amino-2-methoxy)phenoxy]-3-[4-(4-phenoxyphenyl)piperidin-1-yl]-2-propanol]
- Anti-veratrizine effect (inhibiting rate %) [1]: 22.1%
- pIC50 [5]: 5.40
- pIC50 [2]: 6.06
- pIC50 [3]: 4.96
- inhibition in vivo at 10 mg/kg [4]: 60%
- LD50 at 24 h [6]: 36.7 mg/kg
